For 15 compounds, Ki results are on record in ChEMBL document CHEMBL1131681, “Thiazolo[4,5-d]pyrimidine thiones and -ones as corticotropin-releasing hormone (CRH-R1) receptor antagonists” (Bioorg Med Chem Lett, 1999).

Molecules are shown by their SMILES.

The test concerns the target T1, Corticotropin-releasing factor receptor 1 (Homo sapiens, UniProt P34998).
T1 sequence (P34998 whole entry): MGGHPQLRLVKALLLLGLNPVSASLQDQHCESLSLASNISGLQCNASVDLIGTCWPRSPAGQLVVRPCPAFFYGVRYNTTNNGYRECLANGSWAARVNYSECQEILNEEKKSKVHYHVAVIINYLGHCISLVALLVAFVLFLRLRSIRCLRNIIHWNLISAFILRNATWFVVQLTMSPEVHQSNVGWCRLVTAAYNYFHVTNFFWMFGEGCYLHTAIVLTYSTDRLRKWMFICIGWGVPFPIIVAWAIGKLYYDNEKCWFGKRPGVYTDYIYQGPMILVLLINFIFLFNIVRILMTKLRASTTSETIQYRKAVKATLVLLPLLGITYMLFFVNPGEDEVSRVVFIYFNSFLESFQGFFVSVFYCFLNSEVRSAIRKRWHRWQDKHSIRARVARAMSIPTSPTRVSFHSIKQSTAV
In words: Binding affinity against human Corticotropin releasing factor receptor 1 expressed in HEK 293E cells using [125I]TYR-oCRH. It is filed as cell-based, HEK293.

The Ki is a dissociation constant, usually derived from enzyme kinetics or from competition with a known ligand. Take `Cc1nc(N2CCOCC2)c2sc(=S)n(-c3ccc(C(C)C)cc3Br)c2n1`: the Ki stood at 122 nM.

The compound `CCCCN(CC)c1nc(C)nc2c1sc(=S)n2-c1ccc(C(C)C)cc1Br` showed a Ki of 23.9 nM.

As to `COCCN(CCOC)c1nc(C)nc2c1sc(=S)n2-c1c(C)cc(C)cc1C`, the Ki is 8.6 nM.

`CCN(CC)c1nc(C)nc2c1sc(=S)n2-c1c(C)cc(C)cc1C` yielded a Ki of 9.2 nM.

The compound `CCCN(CC1CC1)c1nc(C)nc2c1sc(=O)n2-c1ccc(C(C)C)cc1Br` displayed a Ki of 4.1 nM.

`CCCN(CC1CC1)c1nc(C)nc2c1sc(=S)n2-c1c(C)cc(C)cc1C` came in with a Ki of 13.1 nM.

In the case of `COCCN(CCOC)c1nc(C)nc2c1sc(=O)n2-c1c(C)cc(C)cc1C`, the affinity, expressed as Ki, was 5 nM.

`CCCN(CC1CC1)c1nc(C)nc2c1sc(=S)n2-c1ccc(C(C)C)cc1Br` displayed a Ki of 12.6 nM.

`COCCN(CCOC)c1nc(C)nc2c1sc(=S)n2-c1ccc(C(C)C)cc1Br` registered an inhibition constant Ki of 6.6 nM.

In the case of `CCC(C)N(c1nc(C)nc2c1sc(=S)n2-c1ccc(C(C)C)cc1Br)C(C)CC` (stereo not given), the Ki was 45.4 nM.

For `CCCN(CC1CC1)c1nc(C)nc2c1sc(=O)n2-c1c(C)cc(C)cc1C`, affinity was put at a Ki of 16.2 nM.

`CCN(CC)c1nc(C)nc2c1sc(=O)n2-c1ccc(C(C)C)cc1Br` showed a Ki of 9.4 nM.

`CCN(CC)c1nc(C)nc2c1sc(=O)n2-c1c(C)cc(C)cc1C` displayed a Ki of 14.5 nM. Compared with the last compound, the Ki is about 1.5-fold higher.

Consider `COCCN(CCOC)c1nc(C)nc2c1sc(=O)n2-c1ccc(C(C)C)cc1Br`, for which the Ki came out at 14.5 nM.

Compound `CCN(CC)c1nc(C)nc2c1sc(=S)n2-c1ccc(C(C)C)cc1Br` registered a Ki of 4.1 nM.
